Entries after “also recorded” stand apart in the source; their conditions may differ.
Experiments:
STING = experiment: Western blotting of THP1 cells treated with PEP302; format: cell-based, human
Description: Whole-cell extracts or immunoprecipitation samples were analyzed by immunoblotting. Samples were diluted in XT sample buffer and XT reducing agent and ran on a SDS—PAGE (Criterion™ TGX™). Trans-Blot Turbo™ Transfer System was used for the transfer of proteins to PVDF membranes (all reagents Bio-Rad). The membrane was blocked in 5% Difco™ skim milk (BD) or 5% bovine serum albumin (BSA) (Sigma). For detection of STING dimerization, samples were prepared for electrophoresis using non-reducing RIPA lysis buffer with 0.2% SDS and complete mini inhibitor (Sigma). The antibodies used for immunoblotting were as follows: rabbit anti-pSTING (S366) (Cell Signaling Technology, #85735), rabbit anti-pTBK1 (Ser172) (Cell Signaling, D52C2/#5483), rabbit anti-phospho p62 (Cell Signalling), Guinea pig anti-p62 (Progen), rabbit anti-STING (Cell Signalling) and mouse anti-b-actin (Abcam, AC-15/ab49900).

DNA-cGAS STING pathway [1] = experiment: CXCL10 ELISA, THP1 cells with PEP302; format: cell-based, human; conditions: DNA stimulation
Description: Protein levels of the cytokines CXCL10 and TNF-α in supernatants, were measured using ELISA kits from R and D Systems (CXCL10; DY266) and (TNF-α; DY210) following the manufacturer's instructions.

DNA-cGAS STING pathway [2] = experiment: Type I IFN bioassay, THP1 cells stimulated with DNA or polyIC with/without PEP302; format: cell-based, human
Description: Bioactive human type I IFN was measured on cell supernatants by use of HEK-Blue™ IFN-a/b cells as reporter cells according to the manufacturer instructions (InvivoGen).

STING-pathway [3] = experiment: CXCL10 ELISA on supernatants of peptide-pretreated PMA-differentiated THP1 cells; format: cell-based; conditions: human PMA-differentiated THP1 cells, peptide 10 μg/ml, HT-DNA treatment; listed as SEQ ID NO: 9
STING-pathway [4] = experiment: TNF-α ELISA on supernatants of peptide-pretreated PBMCs stimulated with STING agonists; format: cell-based; conditions: human primary PBMCs, peptide pre-activation (25 μg/ml, 1 hour), co-stimulation with cGAMP or HT-DNA, supernatants after 20 hours
STING-pathway [5] = experiment: Functional type I IFN assay (HEK-Blue IFN-α/β reporter) on supernatants of peptide-pretreated PBMCs; format: cell-based, human; conditions: for type I IFN: PBMCs, peptide pre-activation (25 μg/ml), co-stimulation with HT-DNA
STING-pathway [6] = experiment: Functional type I IFN assay on supernatants of peptide-pretreated THP1 cells; format: cell-based, human; conditions: peptide pre-activation (10 μg/ml), co-stimulation with HT-DNA
[7] = THP1 cells treated with peptide
[8] = THP1 cells, after DNA and cGAMP stimulation, Western blotting

## PGPCERLLSRVAALFPALRP GRKKRRQRRRPQ (PGPCERLLSRVAALFPALRPGRKKRRQRRRPQ; listed as Homo sapiens) [PEP302, PB1 domain fragment peptide of human P62]
STING; [7]
  STING dimerization: may induce
  autophagy (LC3 turnover): may induce; also recorded: seems to constitutively induce
  p62 dimerization: may induce; also recorded: induce p62 dimerization
STING; THP1 cells treated with peptide alone
  ubiquitination of STING: may also induce; also recorded: potentially ubiquitination of STING
STING; [8]
  phosphorylation of TBK1: significantly reduced; also recorded: inhibit/reduce
  phosphorylation of p62: significantly reduced; also recorded: inhibit/reduce
STING; THP1 cells, after DNA stimulation, Western blotting
  phosphorylation of STING: can inhibit; also recorded: may inhibit
STING; THP1 cells, after cGAMP stimulation, Western blotting
  phosphorylation of STING (phospho-STING): significantly reduce; also recorded: may inhibit
DNA-cGAS STING pathway [1]
  DNA-STING-induced CXCL10 production: reduces; also recorded: can inhibit
DNA-cGAS STING pathway [2]; THP1 cells stimulated with DNA or polyIC with/without peptide
  pathway specificity of type I IFN inhibition (DNA versus polyIC stimulation): may specifically target the DNA-cGAS STING pathway and not the polylC pathway
DNA-cGAS STING pathway [2]; THP1 cells, DNA stimulation
  DNA-activated IFN (type I IFN bioassay): reduces

## EELTMAMSYVKDDIFRIYIKGRKKRRQRRRPQ (listed as Homo sapiens) [PEP305, PB1 domain fragment peptide of human P62 C-terminally conjugated to TAT]
STING-pathway [3]
  CXCL10 expression: very efficient in increasing; also recorded: increase
STING-pathway [4]
  cytokine response of TNF-alpha: enhance
STING-pathway [4]; listed as SEQ ID NO: 9
  cytokine response of TNF-alpha: very efficient in increasing
STING-pathway [5]; human primary PBMCs, peptide pre-activation (25 μg/ml, 1 hour), co-stimulation with cGAMP or HT-DNA
  type I Interferon: suppress

## DLCSVCEGKGLHRGHTKLAFGRKKRRQRRRPQ (listed as Homo sapiens) [PEP307, ZZ domain fragment peptide of human P62 C-terminally conjugated to TAT]
STING-pathway [6]
  type I IFN: significant suppression
STING-pathway [6]; listed as SEQ ID NO: 10
  type I IFN: capable of reducing
STING-pathway [5]
  type I IFN: significant suppression
STING-pathway [5]; listed as SEQ ID NO: 10
  type I IFN: capable of reducing

## SLTVKAYLLGKEDAAREIRRGRKKRRQRRRPQ (listed as Homo sapiens) [PEP300, N-terminal fragment peptide of human P62 C-terminally conjugated to TAT]
STING-pathway [6]
  type I IFN: significant suppression
STING-pathway [6]; listed as SEQ ID NO: 8
  type I IFN: capable of reducing
STING-pathway [5]
  type I IFN: significant suppression
STING-pathway [5]; listed as SEQ ID NO: 8
  type I IFN: capable of reducing
